# Source: PubChem BioAssay AID1918993 (Molecular Pharmacology Branch, DTP, NCI, 2023)
# Where “and” joins values, the source holds several entries; their conditions need not be identical. Equal entries are not always repeated.
# System: 233499-124-R-J3-PDC complex spheroid growth
# Test: Anticancer human tumor 233499-124-R-J3-PDC patient-derived colon adenocarcinoma cell line growth inhibition [AhR]
# Conditions: for viability, T/C: stronger effect = lower value
# Procedure, shortened: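 Complex tumor spheroids co-cultured with HUVEC and human MSC stroma; AhR antagonists tested in combination with standard-of-care and investigational agents. Top concentration at or near clinical Cmax (else 10 microM), half-log dilutions; growth expressed as percent test/control.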
# [1] = curve of first compound, second compound 0.1 µM
# [2] = curve of first compound, second compound 0.316 µM
# [3] = curve of first compound, second compound 1 µM
# [4] = curve of first compound, second compound 3.16 µM
# [5] = curve of first compound, second compound 10 µM
# [6] = second compound 0.1 µM, first compound 0.0316 µM
# [7] = second compound 0.1 µM, first compound 0.1 µM
# [8] = second compound 0.1 µM, first compound 0.316 µM
# [9] = second compound 0.1 µM, first compound 1 µM
# [10] = second compound 0.1 µM, first compound 3.16 µM
# [11] = second compound 0.1 µM, first compound 10 µM
# [12] = second compound 0.316 µM, first compound 0.0316 µM
# [13] = second compound 0.316 µM, first compound 0.1 µM
# [14] = second compound 0.316 µM, first compound 0.316 µM
# [15] = second compound 0.316 µM, first compound 1 µM
# [16] = second compound 0.316 µM, first compound 3.16 µM
# [17] = second compound 0.316 µM, first compound 10 µM
# [18] = second compound 1 µM, first compound 0.0316 µM
# [19] = second compound 1 µM, first compound 0.1 µM
# [20] = second compound 1 µM, first compound 0.316 µM
# [21] = second compound 1 µM, first compound 1 µM
# [22] = second compound 1 µM, first compound 3.16 µM
# [23] = second compound 1 µM, first compound 10 µM
# [24] = second compound 3.16 µM, first compound 0.0316 µM
# [25] = second compound 3.16 µM, first compound 0.1 µM
# [26] = second compound 3.16 µM, first compound 0.316 µM
# [27] = second compound 3.16 µM, first compound 1 µM
# [28] = second compound 3.16 µM, first compound 3.16 µM
# [29] = second compound 3.16 µM, first compound 10 µM
# [30] = second compound 10 µM, first compound 0.0316 µM
# [31] = second compound 10 µM, first compound 0.1 µM
# [32] = second compound 10 µM, first compound 0.316 µM
# [33] = second compound 10 µM, first compound 1 µM
# [34] = second compound 10 µM, first compound 3.16 µM
# [35] = second compound 10 µM, first compound 10 µM
# 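Note: spheroids exposed to agents for seven days before reading.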
smiles,measurement,setting,value
CC1COCCN1c1cc(C2(S(C)(=N)=O)CC2)nc(-c2ccnc3[nH]ccc23)n1 (configuration not stated),"viability, T/C",compound 0.0316 µM,103% and 90.3% and 112%
same,"viability, T/C",compound 0.1 µM,108% and 97% and 92.9%
same,"viability, T/C",compound 0.316 µM,92.2% and 95% and 95.2%
same,"viability, T/C",compound 1 µM,105% and 97.5% and 94.2%
same,"viability, T/C",compound 3.16 µM,89.7% and 90.8% and 96.2%
same,"viability, T/C",compound 10 µM,91.8% and 83.7% and 83.1%
same,IC50,curve of compound,> 10 µM
O=C(C=Cc1cccc(S(=O)(=O)Nc2ccccc2)c1)NO + CC(CO)NC(=O)c1cc(-c2ccc(Cl)cc2)nn(-c2cnn(C)c2)c1=O,IC50,[1],5.44 µM
same,IC50,[2],2.91 µM
same,IC50,[3],5.15 µM
same,IC50,[4],3.07 µM
same,IC50,[5],3.52 µM
same,"viability, T/C",[6],98%
same,"viability, T/C",[7],108%
same,"viability, T/C",[8],111%
same,"viability, T/C",[9],115%
same,"viability, T/C",[10],89%
same,"viability, T/C",[11],6.36%
same,"viability, T/C",[12],99.5%
same,"viability, T/C",[13],93%
same,"viability, T/C",[14],98.2%
same,"viability, T/C",[15],96.6%
same,"viability, T/C",[16],46.3%
same,"viability, T/C",[17],4.58%
same,"viability, T/C",[18],97.6%
same,"viability, T/C",[19],94.3%
same,"viability, T/C",[20],110%
same,"viability, T/C",[21],112%
same,"viability, T/C",[22],84.1%
same,"viability, T/C",[23],3.72%
same,"viability, T/C",[24],94.4%
same,"viability, T/C",[25],87.6%
same,"viability, T/C",[26],117%
same,"viability, T/C",[27],108%
same,"viability, T/C",[28],48.7%
same,"viability, T/C",[29],2.7%
same,"viability, T/C",[30],93.9%
same,"viability, T/C",[31],73.9%
same,"viability, T/C",[32],90.9%
same,"viability, T/C",[33],119%
same,"viability, T/C",[34],54.9%
same,"viability, T/C",[35],3.22%
CC(C)CC(NC(=O)C(Cc1ccccc1)NC(=O)c1cnccn1)B(O)O (configuration not stated) + Cc1cncc(-c2nc(NCCc3c[nH]c4ccccc34)c3ncn(C(C)C)c3n2)c1,IC50,[1],0.0154 µM
same,IC50,[2],0.0133 µM
same,IC50,[3],0.0132 µM
same,IC50,[4],0.0129 µM
same,IC50,[5],< 0.000949 µM
same,"viability, T/C","second compound 0.1 µM, first compound 0.000949 µM",98.3%
same,"viability, T/C","second compound 0.1 µM, first compound 0.003 µM",95.1%
same,"viability, T/C","second compound 0.1 µM, first compound 0.00949 µM",86.4%
same,"viability, T/C","second compound 0.1 µM, first compound 0.03 µM",0.15%
same,"viability, T/C","second compound 0.1 µM, first compound 0.0949 µM",0.05%
same,"viability, T/C","second compound 0.1 µM, first compound 0.3 µM",0.13%
same,"viability, T/C","second compound 0.316 µM, first compound 0.000949 µM",92%
same,"viability, T/C","second compound 0.316 µM, first compound 0.003 µM",86.9%
same,"viability, T/C","second compound 0.316 µM, first compound 0.00949 µM",70.9%
same,"viability, T/C","second compound 0.316 µM, first compound 0.03 µM",0.12%
same,"viability, T/C","second compound 0.316 µM, first compound 0.0949 µM",0.04%
same,"viability, T/C","second compound 0.316 µM, first compound 0.3 µM",0.13%
same,"viability, T/C","second compound 1 µM, first compound 0.000949 µM",92.1%
same,"viability, T/C","second compound 1 µM, first compound 0.003 µM",89%
same,"viability, T/C","second compound 1 µM, first compound 0.00949 µM",69.7%
same,"viability, T/C","second compound 1 µM, first compound 0.03 µM",0.12%
same,"viability, T/C","second compound 1 µM, first compound 0.0949 µM",0.05%
same,"viability, T/C","second compound 1 µM, first compound 0.3 µM",0.13%
same,"viability, T/C","second compound 3.16 µM, first compound 0.000949 µM",86.2%
same,"viability, T/C","second compound 3.16 µM, first compound 0.003 µM",82.1%
same,"viability, T/C","second compound 3.16 µM, first compound 0.00949 µM",68.3%
same,"viability, T/C","second compound 3.16 µM, first compound 0.03 µM",0.11%
same,"viability, T/C","second compound 3.16 µM, first compound 0.0949 µM",0.04%
same,"viability, T/C","second compound 3.16 µM, first compound 0.3 µM",0.9%
same,"viability, T/C","second compound 10 µM, first compound 0.000949 µM",8.49%
same,"viability, T/C","second compound 10 µM, first compound 0.003 µM",5.28%
same,"viability, T/C","second compound 10 µM, first compound 0.00949 µM",4.74%
same,"viability, T/C","second compound 10 µM, first compound 0.03 µM",0.17%
same,"viability, T/C","second compound 10 µM, first compound 0.0949 µM",0.15%
same,"viability, T/C","second compound 10 µM, first compound 0.3 µM",0.21%
Nc1ccccc1NC(=O)c1ccc(CNC(=O)OCc2cccnc2)cc1 + CC(CO)NC(=O)c1cc(-c2ccc(Cl)cc2)nn(-c2cnn(C)c2)c1=O,IC50,[1],2.28 µM
same,IC50,[2],2.24 µM
same,IC50,[3],3.93 µM
same,IC50,[4],1.94 µM
same,IC50,[5],1.32 µM
same,"viability, T/C",[6],97.6%
same,"viability, T/C",[7],92.2%
same,"viability, T/C",[8],87.1%
same,"viability, T/C",[9],91%
same,"viability, T/C",[10],33.8%
same,"viability, T/C",[11],3.08%
same,"viability, T/C",[12],102%
same,"viability, T/C",[13],91.4%
same,"viability, T/C",[14],99%
same,"viability, T/C",[15],78.2%
same,"viability, T/C",[16],37.9%
same,"viability, T/C",[17],5%
same,"viability, T/C",[18],88.8%
same,"viability, T/C",[19],96.7%
same,"viability, T/C",[20],105%
same,"viability, T/C",[21],96%
same,"viability, T/C",[22],60.7%
same,"viability, T/C",[23],3.71%
same,"viability, T/C",[24],91.9%
same,"viability, T/C",[25],105%
same,"viability, T/C",[26],101%
same,"viability, T/C",[27],90.8%
same,"viability, T/C",[28],19.7%
same,"viability, T/C",[29],1.49%
same,"viability, T/C",[30],97.1%
same,"viability, T/C",[31],82.9%
same,"viability, T/C",[32],87.9%
same,"viability, T/C",[33],62%
same,"viability, T/C",[34],11.8%
same,"viability, T/C",[35],0.6%
CC1(C)CCC(CN2CCN(c3ccc(C(=O)NS(=O)(=O)c4ccc(NCC5CCOCC5)c([N+](=O)[O-])c4)c(Oc4cnc5[nH]ccc5c4)c3)CC2)=C(c2ccc(Cl)cc2)C1 + CC(CO)NC(=O)c1cc(-c2ccc(Cl)cc2)nn(-c2cnn(C)c2)c1=O,IC50,[1],6.82 µM
same,IC50,[2],7.05 µM
same,IC50,[3],6.78 µM
same,IC50,[4],6.62 µM
same,IC50,[5],6.5 µM
same,"viability, T/C",[6],99.8%
same,"viability, T/C",[7],89.7%
same,"viability, T/C",[8],97.5%
same,"viability, T/C",[9],102%
same,"viability, T/C",[10],108%
same,"viability, T/C",[11],25.3%
same,"viability, T/C",[12],94.5%
same,"viability, T/C",[13],91.2%
same,"viability, T/C",[14],91.1%
same,"viability, T/C",[15],90.7%
same,"viability, T/C",[16],109%
same,"viability, T/C",[17],30.4%
same,"viability, T/C",[18],97.4%
same,"viability, T/C",[19],96.5%
same,"viability, T/C",[20],90.7%
same,"viability, T/C",[21],104%
same,"viability, T/C",[22],103%
same,"viability, T/C",[23],25.5%
same,"viability, T/C",[24],97.5%
same,"viability, T/C",[25],92.1%
same,"viability, T/C",[26],94.5%
same,"viability, T/C",[27],106%
same,"viability, T/C",[28],96.8%
same,"viability, T/C",[29],23.8%
same,"viability, T/C",[30],79.2%
same,"viability, T/C",[31],89.5%
same,"viability, T/C",[32],86.8%
same,"viability, T/C",[33],90.9%
same,"viability, T/C",[34],92.9%
same,"viability, T/C",[35],27.4%
O=C(c1cc(Cc2n[nH]c(=O)c3ccccc23)ccc1F)N1CCN(C(=O)C2CC2)CC1 + CC(CO)NC(=O)c1cc(-c2ccc(Cl)cc2)nn(-c2cnn(C)c2)c1=O,IC50,[1],> 10 µM
same,IC50,[2],> 10 µM
same,IC50,[3],> 10 µM
same,IC50,[4],> 10 µM
same,IC50,[5],> 10 µM
same,"viability, T/C",[6],92.2%
same,"viability, T/C",[7],112%
same,"viability, T/C",[8],102%
same,"viability, T/C",[9],103%
same,"viability, T/C",[10],97.6%
same,"viability, T/C",[11],103%
same,"viability, T/C",[12],99.9%
same,"viability, T/C",[13],92.2%
same,"viability, T/C",[14],95.1%
same,"viability, T/C",[15],102%
same,"viability, T/C",[16],91.2%
same,"viability, T/C",[17],104%
same,"viability, T/C",[18],91.1%
same,"viability, T/C",[19],98.9%
same,"viability, T/C",[20],102%
same,"viability, T/C",[21],101%
same,"viability, T/C",[22],89.2%
same,"viability, T/C",[23],109%
same,"viability, T/C",[24],100%
same,"viability, T/C",[25],84%
same,"viability, T/C",[26],105%
same,"viability, T/C",[27],87.6%
same,"viability, T/C",[28],94.9%
same,"viability, T/C",[29],89.7%
same,"viability, T/C",[30],90.1%
same,"viability, T/C",[31],90%
same,"viability, T/C",[32],80.8%
same,"viability, T/C",[33],85%
same,"viability, T/C",[34],85.5%
same,"viability, T/C",[35],67.5%
